Measurements as given in US9120812B2, “Pyrimidooxazocine derivatives as mTOR-inhibitors” (SANOFI, priority 2012, dated 2015).

Assays:
Akt-pS473 in U87MG cells = conditions: Homo sapiens, U-87 MG, read-out: U87 Akt-pS473 % Inhibition or IC50, nM (IC50), U87MG cells
[1] = target: mTOR (human recombinant aa mTOR 1360-2549) (Homo sapiens (Human), UniProt P42345); test: mTOR enzymatic test by TR-FRET (phosphorylation of GFP-4EBP1); format: biochemical
In short: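 After a 30 min room-temperature kinase reaction, EDTA (10 mM final) and Tb-labelled phospho-Thr46 antibody (2 nM final) were added and incubated 60 min. Energy transfer from Tb to phosphorylated GFP-4EBP1 was read at 340 nm excitation, emissions 490/520 nm. Values derive from the 520/490 fluorescence ratio.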

PI3Kα (p110α/p85α) = PI3Kα (p110α/p85α) (Homo sapiens (Human), UniProt P42336); test: PI3Kα enzymatic test by measuring the consumption of ATP; format: biochemical
Chain of PI3Kα (p110α/p85α) (P42336 whole entry): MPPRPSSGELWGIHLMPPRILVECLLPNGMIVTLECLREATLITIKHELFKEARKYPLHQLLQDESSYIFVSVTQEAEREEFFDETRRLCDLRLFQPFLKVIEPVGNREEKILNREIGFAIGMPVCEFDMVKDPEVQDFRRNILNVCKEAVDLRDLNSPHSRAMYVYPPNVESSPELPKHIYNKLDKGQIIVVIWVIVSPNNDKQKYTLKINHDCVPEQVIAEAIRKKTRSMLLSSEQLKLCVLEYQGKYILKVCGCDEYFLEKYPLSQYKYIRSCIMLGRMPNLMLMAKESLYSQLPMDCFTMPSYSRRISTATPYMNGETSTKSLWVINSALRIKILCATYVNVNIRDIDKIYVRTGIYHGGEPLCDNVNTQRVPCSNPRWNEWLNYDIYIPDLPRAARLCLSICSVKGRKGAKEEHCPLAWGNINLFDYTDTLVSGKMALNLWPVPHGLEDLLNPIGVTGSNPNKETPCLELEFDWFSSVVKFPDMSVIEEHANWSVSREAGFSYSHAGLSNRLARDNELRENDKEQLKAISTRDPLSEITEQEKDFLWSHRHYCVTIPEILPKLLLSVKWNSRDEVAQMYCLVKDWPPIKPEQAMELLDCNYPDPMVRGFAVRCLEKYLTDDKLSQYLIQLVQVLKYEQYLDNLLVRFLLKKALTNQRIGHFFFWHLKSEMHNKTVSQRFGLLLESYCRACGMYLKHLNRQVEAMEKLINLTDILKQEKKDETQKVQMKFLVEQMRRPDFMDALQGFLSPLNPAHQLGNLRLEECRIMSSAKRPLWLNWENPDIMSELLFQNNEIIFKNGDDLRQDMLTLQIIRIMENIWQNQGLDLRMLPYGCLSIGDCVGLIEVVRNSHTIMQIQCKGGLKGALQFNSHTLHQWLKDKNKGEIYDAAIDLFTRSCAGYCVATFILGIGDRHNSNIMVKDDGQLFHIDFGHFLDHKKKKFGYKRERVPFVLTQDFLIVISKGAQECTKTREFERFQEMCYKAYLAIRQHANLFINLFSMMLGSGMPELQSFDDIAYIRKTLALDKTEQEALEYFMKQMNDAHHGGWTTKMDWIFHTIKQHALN
Chain of PI3Kα (p110α/p85α) (P27986 whole entry partner): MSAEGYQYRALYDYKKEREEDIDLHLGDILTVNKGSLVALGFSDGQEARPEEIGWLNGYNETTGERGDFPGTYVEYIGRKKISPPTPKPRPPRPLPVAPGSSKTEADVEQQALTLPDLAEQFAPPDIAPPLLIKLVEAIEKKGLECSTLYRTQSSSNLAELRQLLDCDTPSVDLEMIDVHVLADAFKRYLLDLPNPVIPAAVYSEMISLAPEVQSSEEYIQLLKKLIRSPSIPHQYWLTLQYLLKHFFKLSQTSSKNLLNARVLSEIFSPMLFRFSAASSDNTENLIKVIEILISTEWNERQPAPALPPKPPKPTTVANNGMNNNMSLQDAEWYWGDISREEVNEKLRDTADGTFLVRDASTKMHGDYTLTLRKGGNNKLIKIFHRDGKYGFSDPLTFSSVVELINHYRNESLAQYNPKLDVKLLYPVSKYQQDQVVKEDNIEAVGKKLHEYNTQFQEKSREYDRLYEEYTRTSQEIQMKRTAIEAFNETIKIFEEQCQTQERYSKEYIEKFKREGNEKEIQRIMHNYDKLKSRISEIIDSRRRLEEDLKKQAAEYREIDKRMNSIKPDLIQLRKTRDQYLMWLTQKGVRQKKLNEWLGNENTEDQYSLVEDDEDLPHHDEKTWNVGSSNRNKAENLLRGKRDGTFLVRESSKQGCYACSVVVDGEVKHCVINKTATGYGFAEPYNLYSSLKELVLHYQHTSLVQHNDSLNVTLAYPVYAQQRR
In short: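 ATP consumption read out by KinaseGlo luminescence after a 90 min reaction of 1.7 μg/ml PI3Kα (p110α/p85α) with 2 μM ATP and 50 μM PIP2, buffered at pH 7.5 (Tris, 10 mM MgCl2, 1 mM EGTA, 0.03% Chaps, 1 mM DTT). Threefold dilution series over ≥10 000-fold range yield IC50.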

U87MG tumour cells = test: Test of in vitro proliferation of U87MG tumour cells; format: cell-based; conditions: Homo sapiens, U-87 MG, 72 h, U87MG cells, 72 hours; read-out: U87 Cell Proliferation IC50
Experimental: Model 4: Test of in vitro Proliferation of U87MG Tumour Cells.
The cell growth is determined with the reagent CellTiter 96 AQueous One Solution Cell Proliferation Assay from Promega (Cat. No. G3581).

Chain of mTOR (human recombinant aa mTOR 1360-2549) (P42345 1360-2549): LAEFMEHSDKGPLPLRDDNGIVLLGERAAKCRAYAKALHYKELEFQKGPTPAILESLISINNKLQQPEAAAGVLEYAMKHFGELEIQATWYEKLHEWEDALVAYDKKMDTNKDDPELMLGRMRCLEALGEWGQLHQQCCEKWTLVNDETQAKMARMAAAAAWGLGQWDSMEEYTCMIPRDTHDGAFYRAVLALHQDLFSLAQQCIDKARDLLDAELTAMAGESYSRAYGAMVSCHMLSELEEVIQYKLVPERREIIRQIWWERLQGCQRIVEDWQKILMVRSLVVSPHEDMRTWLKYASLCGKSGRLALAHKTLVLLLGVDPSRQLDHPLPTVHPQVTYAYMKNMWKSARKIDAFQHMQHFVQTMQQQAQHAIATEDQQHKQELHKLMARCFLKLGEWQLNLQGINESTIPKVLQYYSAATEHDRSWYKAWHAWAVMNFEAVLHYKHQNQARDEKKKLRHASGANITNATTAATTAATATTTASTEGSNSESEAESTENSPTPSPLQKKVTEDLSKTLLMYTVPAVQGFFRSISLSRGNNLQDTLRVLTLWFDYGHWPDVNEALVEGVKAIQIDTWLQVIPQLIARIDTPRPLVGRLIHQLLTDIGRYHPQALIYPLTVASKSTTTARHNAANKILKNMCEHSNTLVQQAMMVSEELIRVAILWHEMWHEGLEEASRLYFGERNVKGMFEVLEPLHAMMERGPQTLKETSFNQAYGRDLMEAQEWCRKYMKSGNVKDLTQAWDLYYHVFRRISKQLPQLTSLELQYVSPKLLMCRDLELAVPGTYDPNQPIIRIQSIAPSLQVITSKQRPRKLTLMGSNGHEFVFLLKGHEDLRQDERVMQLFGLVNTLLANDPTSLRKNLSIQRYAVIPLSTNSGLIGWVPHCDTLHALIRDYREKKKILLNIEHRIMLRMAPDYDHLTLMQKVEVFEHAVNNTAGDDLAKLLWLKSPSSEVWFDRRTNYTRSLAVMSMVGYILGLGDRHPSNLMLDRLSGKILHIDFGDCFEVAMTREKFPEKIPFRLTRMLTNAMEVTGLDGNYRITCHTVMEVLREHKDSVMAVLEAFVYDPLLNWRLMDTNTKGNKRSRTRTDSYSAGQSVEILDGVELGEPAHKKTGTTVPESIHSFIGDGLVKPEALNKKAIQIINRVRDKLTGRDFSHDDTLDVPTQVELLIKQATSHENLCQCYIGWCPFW

| Compound | IC50 (Akt-pS473 in U87MG cells) [nM] | IC50 [1] [nM] | PI3Ka IC50 (PI3Kα (p110α/p85α)) [nM] | IC50 (U87MG tumour cells) [nM] |
| --- | --- | --- | --- | --- |
| CCN1CC(C)(C)Oc2nc(N3CC4CCC(C3)O4)nc(-c3ccc(NC(=O)NCCO)cc3)c2C1=O [Example 117, 1-{4-[6-Ethyl-8,8-dimethyl-2-(8-oxa-3-azabicyclo[3.2.1]oct-3-yl)-5-oxo-5,6,7,8-tetrahydro-9-oxa-1,3,6-triazabenzocyclohepten-4-yl]phenyl}-3-(2-hydroxyethyl)urea] | 812 | 25 | 7410 | 1700 |
| CCN1CC(C)(C)Oc2nc(N3CCOC[C@@H]3C)nc(-c3ccc(NC(=O)Nc4cc(OC)ccn4)cc3)c2C1=O [Example 184, 1-{4-[6-Ethyl-8,8-dimethyl-2-((S)-3-methylmorpholin-4-yl)-5-oxo-5,6,7,8-tetrahydro-9-oxa-1,3,6-triazabenzocyclohepten-4-yl]phenyl}-3-(4-methoxypyridin-2-yl)urea] | 65 | 12 | 12978 | 368 |
| CCN1CC(C)(C)Oc2nc(N3C4CCC3COC4)nc(-c3ccc(NC(=O)Nc4ccnc(C)c4)c(F)c3)c2C1=O [Example 55, 1-{4-[6-Ethyl-8,8-dimethyl-2-(3-oxa-8-azabicyclo[3.2.1]oct-8-yl)-5-oxo-5,6,7,8-tetrahydro-9-oxa-1,3,6-triazabenzocyclohepten-4-yl]-2-fluorophenyl}-3-(2-methylpyridin-4-yl)urea] | 27 | 66 | 4810 | 54 |
| COCCN1CC(C)(C)Oc2nc(N3CC4CCC(C3)O4)nc(-c3ccc(NC(=O)Nc4ccc(OC)nc4)c(F)c3)c2C1=O [Example 178, 1-{2-Fluoro-4-[6-(2-methoxyethyl)-8,8-dimethyl-2-(8-oxa-3-azabicyclo[3.2.1]oct-3-yl)-5-oxo-5,6,7,8-tetrahydro-9-oxa-1,3,6-triazabenzocyclohepten-4-yl]phenyl}-3-(6-methoxypyridin-3-yl)urea] | 104 | 45 | >10000 | 252 |
| C[C@H]1COCCN1c1ccc(NC(=O)Nc2ccc(-c3nc(N4CC5CCC(C4)O5)nc4c3C(=O)N(C)CC(C)(C)O4)cc2F)cn1 [Example 73, 1-{2-Fluoro-4-[6,8,8-trimethyl-2-(8-oxa-3-azabicyclo[3.2.1]oct-3-yl)-5-oxo-5,6,7,8-tetrahydro-9-oxa-1,3,6-triazabenzocyclohepten-4-yl]phenyl}-3-[6-((S)-3-methylmorpholin-4-yl)pyridin-3-yl]urea] | 48 | 71 | 5910 | 119 |
| CCN1CC(C)(C)Oc2nc(N3CCOC[C@@H]3C)nc(-c3ccc(NC(=O)Nc4ccncc4)c(F)c3)c2C1=O [Example 231, 1-{4-[6-Ethyl-8,8-dimethyl-2-((S)-3-methylmorpholin-4-yl)-5-oxo-5,6,7,8-tetrahydro-9-oxa-1,3,6-triazabenzocyclohepten-4-yl]-2-fluorophenyl}-3-pyridin-4-ylurea] | 12 | 16 | 103 | 29 |
| CCN1CC(C)(C)Oc2nc(N3CC4CCC(C3)O4)nc(-c3ccc(NC(=O)Nc4ccc(F)cc4F)cc3)c2C1=O [Example 19, 1-(2,4-difluorophenyl)-3-{4-[6-ethyl-8,8-dimethyl-2-(8-oxa-3-azabicyclo[3.2.1]oct-3-yl)-5-oxo-5,6,7,8-tetrahydro-9-oxa-1,3,6-triazabenzocyclohepten-4-yl]phenyl}urea] | 28 | 32 | 6219 | 122 |
| CN1CC(C)(C)Oc2nc(N3CC4CCC(C3)O4)nc(-c3ccc(NC(=O)Nc4ccncc4)cc3)c2C1=O [Example 69, 1-Pyridin-4-yl-3-{4-[6,8,8-trimethyl-2-(8-oxa-3-azabicyclo[3.2.1]oct-3-yl)-5-oxo-5,6,7,8-tetrahydro-9-oxa-1,3,6-triazabenzocyclohepten-4-yl]phenyl}urea] | 35 | 6 | 472 | 79 |
| CCN1CC(C)(C)Oc2nc(N3CC4CCC(C3)O4)nc(-c3ccc(NC(=O)Nc4ccc(CN5CCCCC5)cc4)cc3)c2C1=O [Example 203, 1-{4-[6-Ethyl-8,8-dimethyl-2-(8-oxa-3-azabicyclo[3.2.1]oct-3-yl)-5-oxo-5,6,7,8-tetrahydro-9-oxa-1,3,6-triazabenzocyclohepten-4-yl]phenyl}-3-(4-piperidin-1-ylmethylphenyl)urea] | 111 | 96 | 9610 | 43 |
| CCN1CC(C)(C)Oc2nc(N3CC4CCC(C3)O4)nc(-c3ccc(NC(=O)Nc4ccnc(N5CC6CCC(C5)O6)c4)c(F)c3)c2C1=O [Example 260, 1-{4-[6-Ethyl-8,8-dimethyl-2-(8-oxa-3-azabicyclo[3.2.1]oct-3-yl)-5-oxo-5,6,7,8-tetrahydro-9-oxa-1,3,6-triazabenzocyclohepten-4-yl]-2-fluorophenyl}-3-[2-(8-oxa-3-azabicyclo[3.2.1]oct-3-yl)pyridin-4-yl]urea] | 24 | 174 | >10000 | 95 |
| CCN1CC(C)(C)Oc2nc(N3C4CCC3COC4)nc(-c3ccc(NC(=O)Nc4cc(C)nc(C)c4)c(F)c3)c2C1=O [Example 241, 1-(2,6-Dimethylpyridin-4-yl)-3-{4-[6-ethyl-8,8-dimethyl-2-(3-oxa-8-azabicyclo[3.2.1]oct-8-yl)-5-oxo-5,6,7,8-tetrahydro-9-oxa-1,3,6-triazabenzocyclohepten-4-yl]-2-fluorophenyl}urea] | 43 | 165 | >10000 | 59 |
| CCN1CC(C)(C)Oc2nc(N3CCOC[C@@H]3C)nc(-c3ccc(NC(=O)Nc4ccc(F)cc4F)cc3)c2C1=O [Example 191, 1-(2,4-Difluorophenyl)-3-{4-[6-ethyl-8,8-dimethyl-2-((S)-3-methylmorpholin-4-yl)-5-oxo-5,6,7,8-tetrahydro-9-oxa-1,3,6-triazabenzocyclohepten-4-yl]phenyl}urea] | 26 | 24 | 570 | 105 |
| CCN1CC(C)(C)Oc2nc(N3CC4CCC(C3)O4)nc(-c3ccc(NC(=O)NC4COC4)c(F)c3)c2C1=O [Example 137, 1-{4-[6-Ethyl-8,8-dimethyl-2-(8-oxa-3-azabicyclo[3.2.1]oct-3-yl)-5-oxo-5,6,7,8-tetrahydro-9-oxa-1,3,6-triazabenzocyclohepten-4-yl]-2-fluorophenyl}-3-oxetan-3-ylurea] | 241 | 29 | >10000 | 1330 |
| CCN1CC(C)(C)Oc2nc(N3CCOC[C@@H]3C)nc(-c3ccc(NC(=O)Nc4cc(OC)ccc4F)cc3)c2C1=O [Example 213, 1-{4-[6-Ethyl-8,8-dimethyl-2-((S)-3-methylmorpholin-4-yl)-5-oxo-5,6,7,8-tetrahydro-9-oxa-1,3,6-triazabenzocyclohepten-4-yl]phenyl}-3-(2-fluoro-5-methoxyphenyl)urea] | 20 | 48 | 991 | 103 |
| CCNC(=O)Nc1ccc(-c2nc(N3CCOC[C@@H]3C)nc3c2C(=O)N(CC)CC(C)(C)O3)cc1 [Example 98, 1-Ethyl-3-{4-[6-ethyl-8,8-dimethyl-2-((S)-3-methylmorpholin-4-yl)-5-oxo-5,6,7,8-tetrahydro-9-oxa-1,3,6-triazabenzocyclohepten-4-yl]phenyl}urea] | 20 | 26 | 1138 | 184 |
| CCN1CC(C)(C)Oc2nc(N3CC4CCC(C3)O4)nc(-c3ccc(NC(=O)Nc4ccnc5[nH]ccc45)c(F)c3)c2C1=O [Example 86, 1-{4-[6-Ethyl-8,8-dimethyl-2-(8-oxa-3-azabicyclo[3.2.1]oct-3-yl)-5-oxo-5,6,7,8-tetrahydro-9-oxa-1,3,6-triazabenzocyclohepten-4-yl]-2-fluorophenyl}-3-(1H-pyrrolo[2,3-b]pyridin-4-yl)urea] | 144 | 377 | >10000 | 490 |
| COc1ccc(NC(=O)Nc2ccc(-c3nc(N4CC5CCC(C4)O5)nc4c3C(=O)N(C3CCOCC3)CC(C)(C)O4)cc2)cn1 [Example 148, 1-{4-[8,8-Dimethyl-2-(8-oxa-3-azabicyclo[3.2.1]oct-3-yl)-5-oxo-6-(tetrahydropyran-4-yl)-5,6,7,8-tetrahydro-9-oxa-1,3,6-triazabenzocyclohepten-4-yl]phenyl}-3-(6-methoxypyridin-3-yl)urea] | 21 | 68 | >10000 | 490 |
| CCN1CC(C)(C)Oc2nc(N3CCOC[C@@H]3C)nc(-c3ccc(NC(=O)Nc4ccn(C)n4)c(F)c3)c2C1=O [Example 166, 1-{4-[6-Ethyl-8,8-dimethyl-2-((S)-3-methylmorpholin-4-yl)-5-oxo-5,6,7,8-tetrahydro-9-oxa-1,3,6-triazabenzocyclohepten-4-yl]-2-fluorophenyl}-3-(1-methyl-1H-pyrazol-3-yl)urea] | 278 | 86 | 2300 | 1270 |
